“Also recorded” adds a separate entry of the source.
System: C57BL/6 male mice
Assay: Mouse fear conditioning (contextual and auditory fear memory, freezing)
Format: in vivo
Description: siRNA corresponding to NR2B (sense 5′-GGAUGAGUCCUCCAUGUUCtt-3′ and antisense 5′-GAACAUGGAGGACUCAUCCtt-3′, Silencer Pre-designed siRNA, ID #61879, Ambion, Tex.) was delivered into the ACC by microelectroporation, which was performed as described previously (Wei et al., 2003). Briefly, 0.5 μl of 1:4 mixture of siRNA (2.5 μg/μl) and pEGFP-N1 (1 μg/μl) was injected into the ACC (0.7 mm anterior to Bregma, ±0.4 mm lateral from the midline, 1.8 mm beneath the surface of the skull) (Franklin and Paxinos, 1997) through a 30-gauge injection cannula. Then, square-wave electric pulses (five pulses at 1 Hz, 50 ms duration at 40 V) were delivered through a pair of silver electrodes placed 2 mm anterior and 1 mm posterior to the injection site using a S48 Stimulator (Grass Instruments). Control groups consisted of a group receiving only the electroporation shock, pEGFP-N1, or Silencer Negative control siRNA (#4611, Ambion) and pEGFP-N1. Western blot analysis was performed 4 days after electroporation and electrophysiological recordings were taken 2-4 days after.
Under ketamine and xylazine anesthesia, 24-guage guide cannulas were implanted bilaterally into the ACC (0.7 mm anterior to Bregma, ±0.4 mm lateral from the midline, 1.7 mm beneath the surface of the skull) or dorsal hippocampus (2.0 mm posterior to Bregma, ±1.5 mm lateral from the midline, 1.9 mm beneath the surface of the skull). Mice were given at least 2 weeks to recover after cannula implantation. All procedures were performed in accordance with the requirements of the Animal Studies Committee at the University of Toronto. The 30-gauge injection cannula was 0.1 mm lower than the guide. For intra-ACC infusion, 0.5 μl Ro25-6981 (4 μg/μl) or saline was delivered bilaterally within 90 s using a pump. 15 min later mice were conditioned by one pairing of a tone (2.8 kHz, 85 dB, 30 s) and a foot shock (0.75 mA, 2 s) that terminated at the same time as the tone. For intra-hippocampal infusion, 0.5 μl Ro25-6981 (10 μg/μl) or saline was delivered bilaterally within 90 s. 15 min later mice received one pairing of a tone and a foot shock, as above. One day later, animals were exposed to the conditioning context without a tone for 3 min and freezing responses were scored automatically (Freeze view software, Actrimetrics, Wilmette, Ill.).
NR2B subunit inhibition in adult mice was examined to determine whether this impairs the formation of contextual fear memory. Three days after bilateral siRNA electroporation, mice were trained (or conditioned) and then tested for contextual fear memory by assessing freezing behavior in the same environmental context after 24 hours. There was no difference in baseline freezing or in freezing immediately following the shock/tone pairing between groups; however, there was a significant difference between groups when tested in the contextual environment one day later (n=8 for EGFP only; n=10 for control siRNA; n=8 for shock only; n=11 for NR2B siRNA; one-way ANOVA, p=0.005; FIG. 8C). […] Since the activation of NR2B was suppressed throughout the training and memory test, the roles of NR2B during the acquisition and retrieval of fear memory cannot be distinguished. Recently, electric stimulation of the ACC was reported to induce fear memory one and three days after stimulation (Tang et al., 2005), which implies that the ACC may be involved in the acquisition of fear memory. To directly address this issue, the effect of NR2B blockade using Ro25-6981 was examined. […] In order to rule out any locomotor side-effects, locomotor activity in the open field was tested after bilateral ACC microinjection of Ro25-6981 (n=4) or vehicle (n=4).

[1] = mice, 5 μg in 0.5 μl bilaterally into dorsal hippocampi, tested one day after training

Compound	auditory fear memory (mice, 2 μg in 0.5 μl per side into the bilateral ACC)	auditory fear memory [1]	contextual fear memory [1]	baseline or immediate freezing behavior (mice, ACC microinjection)	baseline or immediate freezing behavior (mice, hippocampal microinjection)	contextual fear memory (freezing in the contextual environment) (mice, microinjection 2 μg in 0.5 μl per side into the bilateral ACC before conditioning)	baseline freezing or freezing immediately following the shock/tone pairing (bilateral siRNA electroporation into ACC)	contextual fear memory (freezing in the contextual environment) (bilateral siRNA electroporation into ACC, trained three days later, tested after 24 hours)
C[C@@H](CN1CCC(Cc2ccccc2)CC1)[C@@H](O)c1ccc(O)cc1 [Ro25-6981]	no difference in auditory fear memory	did not affect	did not impair contextual fear memory; also recorded: did not affect	did not significantly affect	did not significantly affect	decreased contextual fear memory; also recorded: significant reduction in freezing	–	–
NR2B siRNA: siRNA corresponding to NR2B, sense 5′-GGAUGAGUCCUCCAUGUUCtt-3′, antisense 5′-GAACAUGGAGGACUCAUCCtt-3′, Silencer Pre-designed siRNA ID #61879, Ambion (sense GGAUGAGUCCUCCAUGUUCTT; antisense GAACAUGGAGGACUCAUCCTT; chemistry not given here)	–	–	–	–	–	–	no difference	impaired contextual fear memory; also recorded: significantly less freezing
